The values that follow come from publication PMC7034129, “C-2 phenyl replacements to obtain potent quinoline-based Staphylococcus aureus NorA inhibitors” (Journal of Enzyme Inhibition and Medicinal Chemistry, 2020).

SMILES strings stand for the structures. Read-outs that look alike come from different tables or passages of the source. Marks after values point to notes of the source that are not given here.

The test system of series [1] is S. aureus strain SA-1199B (norA+/GrlA mutation). Put plainly: Synergistic assays: compounds at 25 µg/mL with scalar concentrations of CPX. Type of series: cell-based, Staphylococcus aureus. The conditions noted are these: compound at 25 µg/mL. On the procedure: (§1) MICs assays were performed using broth microdilution method in 96 wells-microtiter plates, following the CLSI guidelines.
(data not shown). […] Worthy of note, among the five active compounds, three were thiophene derivatives (35b, 36b and 37a) displaying their activity regardless of the position of the sulphur atom on the thiophene ring.

The next series concerns S. aureus SA-1199B. Type of series: cell-based, Staphylococcus aureus. The conditions noted are these: for synergistic effect with CPX: compound concentration below 25 µg/mL; for compound concentration reducing the CPX MIC by 4-fold: chequerboard with CPX. On the procedure:
as §1
Chequerboard assays and time-kill curves were performed as previously described.

In series [2] the test system is human leukemic monocyte cell line (THP-1). Put plainly: Cell viability assay (ATP bioluminescence). The conditions noted are these: ratio between CC50 (THP-1) and minimum EPI concentration able to reduce by 4-fold CPX MIC. The method, then: THP-1 cells were grown in RPMI 1640 supplemented with 10% heat-inactivated foetal calf serum, 10,000 units of penicillin, and 10 µg of streptomycin/mL overnight to confluence. […] Cell viability was then evaluated using an ATP bioluminescence kit (Via Light kit; Cambrex). Results are expressed as 50% cytotoxic concentration (CC50). The CC50 was defined as the concentration required to reduce the cell number by 50% compared to that for the untreated controls. Each concentration was tested in triplicate.

Series [3] deals with SA-1199B. Also noted: method as in PMID 30067360. The conditions noted are these: as previously reported; cited from earlier work.
Series [4] relates to human leukemic monocyte cell line (THP-1). Also noted: method as in PMID 30067360. The conditions noted are these: THP-1 cells; cited from earlier work.
Details of series [5]: method as in PMID 30067360. The conditions noted are these: in silico and in vitro, mouse liver microsomes 2 h; cited from earlier work.
In series [6] the test system is SA-1199B. Description: Membrane potential (polarisation) assays, BacLight kit, DiOC2(3). Type of series: cell-based, Staphylococcus aureus. The conditions noted are these: 30 min. On the procedure:
Membrane potential assays were carried out by measuring the effect of 1 and 37a on the membrane potential using the BacLight Bacterial Membrane Potential Kit (Molecular Probes, Life Technologies) according to the manufacturer’s instructions. Briefly, SA-1199B was grown in MHB at 37 °C until reaching an OD600 of 0.6. Bacterial cells were then washed in PBS and diluted to 1 × 10^6 CFU/mL with filtered PBS (filter 0.22 µm) in flow cytometry tubes. Ten microliters of 3 mM 3,3-diethyloxacarbocyanine iodide (DiOC2(3) in DMSO) was added to each tube (final concentration 30 µM) and mixed. Then, 1 or 37a from a stock solution in DMSO (10 mg/mL) was added to reach final concentrations of 1, 5, and 10 µg/mL. As positive control, 10 µL of 500 µM carbonyl cyanide m-chlorophenylhydrazone (CCCP, final concentration 5 µM) was used to eradicate the proton gradient by eliminating the membrane potential. The samples were analysed after 30 min by measuring the fluorescence using a cytometer Attune NxT (ThermoFisher Scientific) with a laser emitting at 488 nm and collecting in the green and red channels. The red to green fluorescence ratio was determined and normalised against the emission from the DiOC2(3) blank tube having 1 ml of the bacterial suspension and a final concentration of DiOC2(3) of 30 µM. The results are presented as the percentage of depolarised membranes compared with the drug-free control.
Since efflux pumps need a proton gradient along the bacterial membrane, its modification/disruption can lead to an efflux inhibition. However, this effect cannot be related to a specific EPI activity; on the contrary, it relies on a non-specific interruption of the energy source (protons) that efflux pumps use to extrude their substrates by an antiport mechanism. A typical example of a compound inhibiting efflux pumps activity by this non-specific mechanism is represented by carbonyl cyanide m-chlorophenyl hydrazone (CCCP). […] Membrane polarisation was assessed by cytofluorimeter analysis using the fluorescent probe 3,3-diethyloxacarbocyanine iodide (DiOC2(3)) as its distribution is proton gradient-sensitive.

For the compound `Cl.c1csc(-c2cc(OCCN3CCCCC3)c3ccccc3n2)c1` [Compound 35b, 4–(2-piperidin-1-ylethoxy)-2–(2-thienyl)quinoline hydrochloride], the melting point lay within 208 to 209.5 °C. Moreover, the “reduction of the CPX MIC” value in series [1] turned out to be 4 fold. Further, the “synergistic effect with CPX” value in the series on S. aureus SA-1199B is given as “did not retain any synergistic effect”.

Regarding `CCCOc1ccc(-c2cc(OCCN3CCCCC3)c3ccccc3n2)nc1` [Compound 30b, 4–(2-Piperidin-1-ylethoxy)-2–(5-propoxypyridin-2-yl)quinoline], the melting point lay in the range of 90 to 91 °C. In addition, in series [1], the “reduction of the CPX MIC” value is on record as 4 fold. In the series with S. aureus SA-1199B, the “compound concentration reducing the CPX MIC by 4-fold” value is given as 12.5 µg/mL.

As for `CCN(CC)CCOc1cc(-c2ccccn2)nc2ccccc12.Cl` [Compound 32a, N,N-diethyl-2-[(2-pyridin-2-ylquinolin-4-yl)oxy]ethanamine hydrochloride], the melting point is 173 to 174 °C. Besides, the “synergistic effect / EPI activity with CPX” value in series [1] is on record as “lost EPI activity”.

Turning to `CCN(CC)CCOc1cc(-c2cccs2)nc2ccccc12`, the melting point was 84 to 86 °C.

`CCCOc1ccc(-c2cc(OCCN(CC)CC)c3ccccc3n2)nc1.Cl` [Compound 30a, N,N-diethyl-2-{[2–(5-propoxypyridin-2-yl)quinolin-4-yl]oxy}ethanamine hydrochloride] gave a melting point of 212 to 213 °C. In addition, the “reduction of the CPX MIC” value in series [1] is 4 fold. In the series with S. aureus SA-1199B, the “compound concentration reducing the CPX MIC by 4-fold” value was 6.25 µg/mL.

Take `c1cncc(-c2cc(OCCN3CCCCC3)c3ccccc3n2)c1` [Compound 33b, 4–(2-Piperidin-1-ylethoxy)-2-pyridin-3-ylquinoline]: the melting point is 101.5 to 102.5 °C. In addition, in series [1], the “synergistic effect / EPI activity with CPX” value was “lost EPI activity”.

Regarding `CCCOc1ccc(-c2cc(OCCN3CCCCC3)c3cc(OC)ccc3n2)cc1` [Compound 2], the “SI, selectivity index” value in series [2] is recorded as above 128. In addition, the depolarised bacterial membrane result in the series on SA-1199B [3] was “about 20%”. Also, the CC50 in series [4] is reported as >100^b µg/mL. Moreover, the “CPX MIC reduction” value in the series on S. aureus SA-1199B (compound at 0.39 µg/mL) is listed as 2 fold. Moreover, in series [5], the “metabolic stability” value is reported as “good metabolic stability”.

Compound `c1ccc2c(OCCN3CCCCC3)cc(-c3ccsc3)nc2c1` [Compound 36b, 4–(2-Piperidin-1-ylethoxy)-2–(3-thienyl)quinoline] returned a melting point of 109.5 to 111 °C. The “reduction of the CPX MIC” value in series [1] was found to be 4 fold. Further, the “synergistic effect with CPX” value in the series with S. aureus SA-1199B is listed as “did not retain any synergistic effect”.

Take `CCN(CC)CCOc1cc(-c2ccsc2)nc2ccccc12`: the melting point is 66 to 67 °C.

`c1ccc(-c2cc(OCCN3CCCCC3)c3ccccc3n2)nc1` [Compound 32b, 4–(2-Piperidin-1-ylethoxy)-2-pyridin-2-ylquinoline] showed a melting point of 77 to 79.5 °C. In addition, in series [1], the “synergistic effect / EPI activity with CPX” value was “lost EPI activity”.

With `Clc1ccc(-c2cc(OCCN3CCCCC3)c3ccccc3n2)s1`, the melting point lay within 99 to 101 °C.

For `CCCOc1ccc(-c2cc(OCCN(CC)CC)c3ccccc3n2)cn1.Cl` [Compound 31a, N,N-diethyl-2-{[2–(6-propoxypyridin-3-yl)quinolin-4-yl]oxy}ethanamine hydrochloride], the melting point was in the range of 188 to 190 °C. Also, the “synergistic effect / EPI activity with CPX” value in series [1] is recorded as “lost EPI activity”.

In the case of `CCCOc1ccc(-c2cc(OCCN(CC)CC)c3ccccc3n2)cc1` [Compound 1, reference compound], the depolarised bacterial membrane entry with SA-1199B [6] (1 µg/mL) and in the series with SA-1199B [6] (5 µg/mL) was “retained a significant depolarising effect” in each case. Also, the “depolarised S. aureus membrane” value in the series on SA-1199B [6] (10 µg/mL) was above 50%.

On to `CCCOc1ccc(-c2cc(OCCN3CCCCC3)c3ccccc3n2)cn1.Cl` [Compound 31b, 4–(2-Piperidin-1-ylethoxy)-2–(6-propoxypyridin-3-yl)quinoline hydrochloride], for which the melting point lay in the range of 223 to 224 °C. The “synergistic effect / EPI activity with CPX” value in series [1] is “lost EPI activity”.

Regarding `Cl.c1ccc2c(OCCN3CCCCC3)cc(-c3ccncc3)nc2c1` [Compound 34b, 4–(2-Piperidin-1-ylethoxy)-2-pyridin-4-ylquinoline hydrochloride], the melting point was in the range of 183.5 to 185 °C. The “synergistic effect / EPI activity with CPX” value in series [1] is listed as “lost EPI activity”.

Regarding `CCN(CC)CCOc1cc(-c2cccnc2)nc2ccccc12.Cl` [Compound 33a, N,N-diethyl-2-[(2-pyridin-3-ylquinolin-4-yl)oxy]ethanamine hydrochloride], the melting point was in the range of 181 to 182 °C. Moreover, in series [1], the “synergistic effect / EPI activity with CPX” value is “lost EPI activity”.

As to `CCN(CC)CCOc1cc(-c2ccncc2)nc2ccccc12` [Compound 34a, N,N-diethyl-2-[(2-pyridin-4-ylquinolin-4-yl)oxy]ethanamine], the melting point was in the range of 73.5 to 74 °C. Further, the “synergistic effect / EPI activity with CPX” value in series [1] is listed as “lost EPI activity”.

By melting point is commonly meant the temperature, or range, at which the solid turns liquid.
